The values that follow come from US8207227B2, “Disodium salts, monohydrates, and ethanol solvates for delivering active agents” (Emisphere Technologies, Inc., priority 1999, dated 2012).

Data set [1] is described as follows: Oral delivery of sCT/sodium salt of 5-CNAC in rats; serum sCT by EIA kit, modified protocol. It is filed as in vivo, Sprague-Dawley rats. As to conditions: subcutaneous, sCT 5 mg/kg (so in the source), no delivery agent. As to the method: The rats were administered one of the following: • (4a) orally, one capsule of 13 mg lyophilized powder as prepared as in Example 19 with 0.5 ml of water to flush the capsule down; • (4b) orally, 1.0 ml/kg of a reconstituted aqueous solution of the lyophilized powder prepared in Example 19; • (4c) orally, 1.0 ml/kg of “fresh”, unlyophilized aqueous solution of 5-CNAC sodium salt as prepared in Example 20 with sCT; or • (4d) subcutaneously, 5 mg/kg of sCT.
Doses (4a), (4b) and (4c) contained 50 mg/kg of the sodium salt of 5-CNAC and […] of sCT. Doses for (4a) are approximate because the animals were given one capsule filled with the stated amount of powder based on an average animal weight of 250 g, whereas actual animal weight varied. This is also the case in all later examples where a capsule is dosed.
The reconstituted solution for (4b) was prepared by mixing 150 mg of the lyophilized powder prepared as in Example 19 in 3 ml of water. The reconstituted solution was dosed at […].
The subcutaneous doses were prepared by dissolving 2 mg of sCT in 1 ml water. […]. This solution was dosed at 0.5 ml/kg.
Blood samples were collected serially from the tail artery. […]

The next data set has as its system clotting time (APTT). The data set is described as follows: Oral delivery of heparin with SNAC salts; clotting time by activated partial thromboplastin time (APTT). It is filed as in vivo, Sprague-Dawley rats. The following applies: rats, oral gavage, 3 ml/kg, compound 300 mg/kg, heparin 100 mg/kg; baseline about 20 seconds. The procedure: Oral gavage (PO) dosing solutions containing heparin sodium USP and either the mono-sodium or di-sodium salt form of the delivery agent compound SNAC were prepared in water. The delivery agent compound and heparin (166.9 IU/mg) were mixed by vortex as dry powders. This dry mixture was dissolved in water, vortexed and sonicated at about 37° C. to produce a clear solution. The pH was not adjusted. The final volume was adjusted to about 10.0 ml. The final delivery agent compound dose, heparin dose and dose volume amounts are listed below in Table 2 below.
The typical dosing and sampling protocols were as follows. […]
Citrated blood samples were collected by cardiac puncture 0.25, 0.5, 1.0 and 1.5 hours after administration. Heparin absorption was verified by an increase in clotting time as measured by the activated partial thromboplastin time (APTT) according to the method of Henry, J. B., Clinical Diagnosis and Management by Laboratory Methods, Philadelphia, Pa., W.B. Saunders (1979). […] Heparin absorption was also verified by an increase in plasma heparin measured by the anti-Factor Xa assay CHROMOSTRATE® Heparin anti-Xa assay, available from Organon Teknika Corporation of Durham, N.C. […]

A short description of data set [2]: Oral delivery of heparin with SNAC salts; plasma heparin by anti-Factor Xa assay. It is filed as in vivo, Sprague-Dawley rats. As to conditions: rats, oral gavage, 3 ml/kg, compound 300 mg/kg, heparin 100 mg/kg. The procedure:
The typical dosing and sampling protocols were as follows. […] The syringe was filled with dosing solution by drawing the solution through the catheter, which was then wiped dry. The catheter was placed down the esophagus leaving 1 cm of tubing past the incisors. Solution was administered by pressing the syringe plunger.

The nature of data set [3]: Oral delivery of low molecular weight heparin (LMWH) with SNAD salts; plasma heparin by anti-Factor Xa assay. It counts as in vivo, Sprague-Dawley rats. The following applies: rats, 3 ml/kg, compound 300 mg/kg, LMWH dose 3000 (mg/kg). The procedure:
The typical dosing and sampling protocols were as follows. Male Sprague-Dawley rats weighing between 275-350 g were fasted for 24 hours and were anesthetized with ketamine hydrochloride (about 88 mg/kg) intramuscularly immediately prior to dosing and again as needed to maintain anesthesia. A dosing group of ten rats was administered one of the dosing solutions. An 11 cm Rusch 8 French catheter was adapted to a 1 ml syringe with a pipette tip. The syringe was filled with dosing solution by drawing the solution through the catheter, which was then wiped dry. The catheter was placed down the esophagus leaving 1 cm of tubing past the incisors. Solution was administered by pressing the syringe plunger.
Oral dosing (PO) compositions containing low molecular weight heparin (LMWH) and either the mono-sodium or di-sodium salt form of the delivery agent compound SNAD were prepared in water. […]
Citrated blood samples were collected by cardiac puncture 0.5, 1.0, 2.0, 3.0 and 4.0 hours after administration. Heparin absorption was verified by an increase in plasma heparin measured by the anti-Factor Xa assay CHROMOSTRATE® Heparin anti-Xa assay, available from Organon Teknika Corporation of Durham, N.C. Baseline values were determined earlier and found to be about zero IU/ml. […]

The nature of data set [4]: Oral delivery of heparin with SNAD salts; plasma heparin by anti-Factor Xa assay. It is filed as in vivo, cynomolgus macaque monkeys. As to conditions: cynomolgus monkeys, about 150 mg/kg delivery agent and 30 mg/kg heparin. As to the method: The dose for each monkey was about 150 mg/kg of the disodium SNAD ethanol solvate and about 30 mg/kg of heparin. The dosing protocol for administering the capsules to each animal was as follows. […] Water was available throughout the dosing period and 400 ml juice was made available to the animal overnight prior to dosing and throughout the dosing period. The animal was restrained in a sling restraint. A capsule was placed into a “pill gun”, which is a plastic tool with a cocked plunger and split rubber tip to accommodate a capsule. The pill gun was inserted into the esophagus of the animal. The plunger of the pill gun was pressed to push the capsule out of the rubber tip into the esophagus. The pill gun was then retracted. The animal's mouth was held closed and approximately 5 ml reverse osmosis water was administered into the mouth from the side to induce a swallowing reflex. The throat of the animal was rubbed further to induce the swallowing reflex. […] Blood was added to fill the tube to the 1.3 ml line. The tube was then placed on wet ice pending centrifugation. […] Plasma heparin concentrations were determined using the anti-Factor Xa assay CHROMOSTRATE™ heparin anti-Xa assay, available from Organon Teknika Corporation of Durham, N.C. Results from the animals were averaged for each time point. […] Two tablets were dosed to each of approximately 4.0 kg monkeys. […]

Take `CC(C)C[C@H](NC(=O)[C@H](CCCCN)NC(=O)CNC(=O)[C@H](CC(C)C)NC(=O)[C@@H](NC(=O)[C@@H]1CSSC[C@H](N)C(=O)N[C@@H](CO)C(=O)N[C@@H](CC(N)=O)C(=O)N[C@@H](CC(C)C)C(=O)N[C@@H](CO)C(=O)N[C@@H]([C@@H](C)O)C(=O)N1)C(C)C)C(=O)N[C@@H](CO)C(=O)N[C@@H](CCC(N)=O)C(=O)N[C@@H](CCC(=O)O)C(=O)N[C@@H](CC(C)C)C(=O)N[C@@H](Cc1c[nH]cn1)C(=O)N[C@@H](CCCCN)C(=O)N[C@@H](CC(C)C)C(=O)N[C@@H](CCC(N)=O)C(=O)N[C@H](C(=O)N[C@@H](Cc1ccc(O)cc1)C(=O)N1CCC[C@H]1C(=O)N[C@@H](CCCNC(=N)N)C(=O)N[C@H](C(=O)N[C@@H](CC(N)=O)C(=O)N[C@H](C(=O)NCC(=O)N[C@@H](CO)C(=O)NCC(=O)N[C@H](C(=O)N1CCC[C@H]1C(N)=O)[C@@H](C)O)[C@@H](C)O)[C@@H](C)O)[C@@H](C)O` [(4d) subcutaneous, salmon calcitonin]: the “Mean Peak Serum sCT ± SD” value was 965 ± 848 pg/mL in data set [1] (Table 5, rats) and 273 ± 320 pg/mL in data set [1] (Table 6, rats).

In the case of `O=C([O-])CCCCCCCNC(=O)c1ccccc1[O-].[Na+].[Na+]` [SNAC - di], in the data set with clotting time (APTT), the “Mean Peak APTT (sec) ± SE” value stood at 300 ± 0 s. The “Mean Peak Factor Xa (IU · ml) ± SE” value in data set [2] is reported as 2.81 ± 0.17 IU · ml.

Consider “Mono-Sodium N-(8-[(2-hydroxybenzoyl]amino)caprylate [SNAC - mono]”, for which the “Mean Peak APTT (sec) ± SE” value with clotting time (APTT) stood at 247 ± 28.5 s.

Consider `O=C([O-])CCCCCCCCCNC(=O)c1ccccc1[O-].[Na+].[Na+]` [SNAD-di], for which the “Mean Peak Plasma Heparin Concentration (IU/ml) ± SE” value in data set [3] is 1.21 ± 0.15 IU/ml.

`O=C([O-])CCCCCCCCCNC(=O)c1ccccc1O.[Na+]` [monosodium salt of SNAD, Monosodium N-(10-[2-hydroxybenzoyl]amino)decanoate]: in data set [3], the “Mean Peak Plasma Heparin Concentration (IU/ml) ± SE” value came to 0.88 ± 0.17 IU/ml. For the same compound, in data set [4], the “Time after administration at which maximum averaged plasma heparin was reached” value is 2 h. Besides, the “Maximum averaged plasma heparin concentration” value in data set [4] (two capsules or two tablets) amounted to 0.23±0.19 IU/mL.
